Reference: patent US6455588B1, “Compositions including modafinil for treatment of eating disorders and for appetite stimulation” (Cephalon, Inc., priority 1999, dated 2002)

Legend:
[1] = tested on: neurons of the TMN and VLPO of the hypothalamus; experiment: Neuronal activity in hypothalamic nuclei (TMN, VLPO) after modafinil administration; type: in vivo, rats
Description: Activation of this histaminergic pathway by modafinil results in cortical activation and wakefulness. Thus, it appears that the physiologic basis for the wake-promoting actions of modafinil involves disinhibition of histaminergic neurons of the TMN by inhibitory actions on the VLPO. This represents the first pharmacologic agent known to produce wakefulness by activation of the TMN.

[2] = tested on: orexin neurons; experiment: Double immunostaining for orexin and Fos, cell counts in the perifornical region of modafinil-treated mice; type: in vivo; conditions: wild-type mice, 150 mg/kg i.p., 2 hours
Description: To determine that modafinil might act through orexin neurons, wild-type mice were injected at noon with modafinil (150 mg/kg i.p.), or vehicle, and sacrificed 2 hours later. Brains were removed, double immunostained for orexin and Fos (an indicator of neuronal activity), and cells were counted in the periforllical region. The number of orexin-immunoreactive neurons was the same in both groups (44-47 cells/section), but the modafinil-treated group had over three times as many Fos-immunoreactive neuronal nuclei (38 in the modafinil-treated mice vs. 11 in the vehicle controls; p=0.01). Within the population of orexin-immunoreactive neurons, modafinil induced a 9-fold increase in the number of Fos-immunoreactive cells (64% double labeled neurons in the modafinil group vs. 7% in the vehicle group, p=0.01) (FIG. 1). Thus, in the lateral hypothalamus, modafinil treatment is associated with activation of orexin neurons, and is thus useful as a treatment for eating disorders or for increasing appetite.

[3] = 400 mg/day, clinical trials; cited from earlier work

## NC(=O)C[S+]([O-])C(c1ccccc1)c1ccccc1 (stereo not drawn) [modafinil, 2-(benzhydrylsulfinyl) acetamide]
[1]; rats
  activity of the neurons in the ventrolateropreoptic area (VLPO) of the hypothalamus: reduced the activity
[1]; wakefulness-promoting doses
  activity in the TMN of the posterior hypothalamus: stimulation of activity
[2]; perifornical region, vehicle 11, p=0.01
  Fos-immunoreactive neuronal nuclei: 38
[2]; vehicle 7%, p=0.01
  double labeled (orexin/Fos) neurons within orexin-immunoreactive neurons: 64%
[2]; versus vehicle
  increase in the number of Fos-immunoreactive cells within orexin-immunoreactive neurons: 9 fold
[3]
  tolerability: well tolerated
